In general, pest or weed control refers to how far the test organism was held down. A high value points to a strong effect.

In assay [1] the test system is Puccinia recondita f. sp. tritici. As to the kind of experiment: Puccinia recondita f. sp. tritici / wheat / leaf disc curative (brown rust). It counts as in vivo. To be noted: foliar, 24 h, wheat leaf segments cv. Kanzler, compound applied 1 day after inoculation, compared to untreated control. Here is the method:
Example B9: Puccinia recondita f. Sp. Tritici/Wheat/Leaf Disc Curative (Brown Rust) Wheat leaf segments cv. Kanzler are placed on agar in multiwell plates (24-well format). The leaf segments are inoculated with a spore suspension of the fungus. Plates are stored in darkness at 19° C. and 75% rh. The formulated test compound diluted in water is applied 1 day after inoculation. The leaf segments are incubated at 19° C. and 75% rh under a light regime of 12 h light/12 h darkness in a climate cabinet and the activity of a compound is assessed as percent disease control compared to untreated when an appropriate level of disease damage appears in untreated check leaf segments (6-8 days after application). […] […]-9, and P-11.

The test system is the same in assay [2]. Kind of assay: Puccinia recondita f. sp. tritici / wheat / leaf disc preventative (brown rust). In kind it is in vivo. Particulars: foliar, wheat leaf segments cv. Kanzler, inoculated 1 day after application, compared to untreated control. Here is the method: Example B10: Puccinia recondita f. Sp. Tritici/Wheat/Leaf Disc Preventative (Brown Rust) Wheat leaf segments cv. Kanzler are placed on agar in multiwell plates (24-well format) and sprayed with the formulated test compound diluted in water. The leaf disks are inoculated with a spore suspension of the fungus 1 day after application. The inoculated leaf segments are incubated at 19° C. and 75% rh under a light regime of 12 h light/12 h darkness in a climate cabinet and the activity of a compound is assessed as percent disease control compared to untreated when an appropriate level of disease damage appears in untreated check leaf segments (7-9 days after application). […] […]-10, and P-11.

For the molecule `Cc1sc(N(C(=O)C2CCOC2)c2cc(F)nc(F)c2)nc1C(=O)N(C(=O)C1CCOC1)C1CCC1(C)C` (stereo not drawn) [Compound P-1, 2-[(2,6-difluoro-4-pyridyl)-(tetrahydrofuran-3-carbonyl)amino]-N-(2,2-dimethylcyclobutyl)-5-methyl-N-(tetrahydrofuran-3-carbonyl)thiazole-4-carboxamide], the pest or weed control at 200 ppm in assay [1] and in assay [2] was ≥ 80% each time.

Consider `Cc1sc(N(C(=O)C2CCCO2)c2cc(F)nc(F)c2)nc1C(=O)NC1CCC1(C)C` (stereo not drawn) [Compound P-2, 2-[(2,6-difluoro-4-pyridyl)-(tetrahydrofuran-2-carbonyl)amino]-N-(2,2-dimethylcyclobutyl)-5-methyl-thiazole-4-carboxamide], for which the pest or weed control at 200 ppm in assay [1] and in assay [2] was ≥ 80% in each case.

`Cc1sc(N(C(=O)C2CCOC2)c2cc(F)nc(F)c2)nc1C(=O)NC1CCC1(C)C` (stereo not drawn) [Compound P-3, 2-[(2,6-difluoro-4-pyridyl)-(tetrahydrofuran-3-carbonyl)amino]-N-(2,2-dimethylcyclobutyl)-5-methyl-thiazole-4-carboxamide]: the pest or weed control at 200 ppm in assay [1] and in assay [2] was ≥ 80% throughout.

As for `Cc1sc(N(C(=O)C2COC2)c2cc(F)nc(F)c2)nc1C(=O)NC1CCC1(C)C` (stereo not drawn) [Compound P-4, 2-[(2,6-difluoro-4-pyridyl)-(oxetane-3-carbonyl)amino]-N-(2,2-dimethylcyclobutyl)-5-methyl-thiazole-4-carboxamide], the pest or weed control at 200 ppm in assay [1] and in assay [2] was ≥ 80% in each case.

As to `Cc1sc(N(C(=O)C(C)OC(C)(C)C)c2cc(F)nc(F)c2)nc1C(=O)NC1CCC1(C)C` (stereo not drawn) [Compound P-5, 2-[2-tert-butoxypropanoyl-(2,6-difluoro-4-pyridyl)amino]-N-(2,2-dimethylcyclobutyl)-5-methyl-thiazole-4-carboxamide], the pest or weed control at 200 ppm in assay [1] and in assay [2] was ≥ 80% throughout.

Regarding `Cc1sc(N(C(=O)C(C)OC(C)C)c2cc(F)nc(F)c2)nc1C(=O)NC1CCC1(C)C` (stereo not drawn) [Compound P-6, 2-[(2,6-difluoro-4-pyridyl)-(2-isopropoxypropanoyl)amino]-N-(2,2-dimethylcyclobutyl)-5-methyl-thiazole-4-carboxamide], the pest or weed control at 200 ppm in assay [1] and in assay [2] was ≥ 80% each time.

On to `Cc1sc(N(C(=O)COC(C)(C)C)c2cc(F)nc(F)c2)nc1C(=O)NC1CCC1(C)C` (stereo not drawn) [Compound P-7, 2-[(2-tert-butoxyacetyl)-(2,6-difluoro-4-pyridyl)amino]-N-(2,2-dimethylcyclobutyl)-5-methyl-thiazole-4-carboxamide], for which the pest or weed control at 200 ppm in assay [2] is ≥ 80%.

On to `COC(C)C(=O)N(c1cc(F)nc(F)c1)c1nc(C(=O)NC2CCC2(C)C)c(C)s1` (stereo not drawn) [Compound P-9, 2-[(2,6-difluoro-4-pyridyl)-(2-methoxypropanoyl)amino]-N-(2,2-dimethylcyclobutyl)-5-methyl-thiazole-4-carboxamide], for which the pest or weed control at 200 ppm in assay [1] and in assay [2] was ≥ 80% throughout.

With `Cc1sc(N(C(=O)C(C)S(C)(=O)=O)c2cc(F)nc(F)c2)nc1C(=O)NC1CCC1(C)C` (stereo not drawn) [Compound P-10, 2-[(2,6-difluoro-4-pyridyl)-(2-methylsulfonylpropanoyl)amino]-N-(2,2-dimethylcyclobutyl)-5-methyl-thiazole-4-carboxamide], the pest or weed control at 200 ppm in assay [2] is ≥ 80%.

On to `Cc1sc(N(C(=O)C2CCOCC2)c2cc(F)nc(F)c2)nc1C(=O)NC1CCC1(C)C` (stereo not drawn) [Compound P-11, 2-[(2,6-difluoro-4-pyridyl)-(tetrahydropyran-4-carbonyl)amino]-N-(2,2-dimethylcyclobutyl)-5-methyl-thiazole-4-carboxamide], for which the pest or weed control at 200 ppm in assay [1] and in assay [2] was ≥ 80% each time.
